In patent US5583144A, “Methods for treating erectile impotence” (priority 1995, dated 1996):
“Also recorded” adds a separate entry of the source.

How the values were obtained:
erectile dysfunction = settings: cited from earlier work; for duration of action / erections: agents used to treat impotence, causing pain and general discomfort; for priapism or extremely long erections following treatment for erectile dysfunction: men treated for erectile dysfunction, literature
[1] = tested on: alpha-adrenergic receptor; assay: Inhibition of epinephrine-induced pressor response (arterial blood pressure) in pentobarbital anesthetized rats; assay type: in vivo, Sprague-Dawley rats; settings: for estimated pharmacologic half-life on alpha-adrenergic receptor antagonism: epinephrine 1.0 ug/kg iv challenge, pentobarbital anesthetized rats; for alpha-adrenergic antagonism in vivo: inhibition of the pressor effect of epinephrine challenge; for duration of action relative to that of phentolamine: 0.25 mg/kg iv each, four rats per treatment, alpha-adrenergic antagonism / duration of vasodilation (FIG. 1)
Protocol: (§1) Eight male normotensive Sprague-Dawley rats weighing between 350 to 380 grams were used in these studies. Animals were fed and watered ad libitum in a temperature (22 degrees and humidity (50%) controlled vivarium with a light dark cycle of 12 hours.
Epinephrine, D,L-piperoxan, and phentolamine (Sigma Chemical Company; St. Louis, Mo.) were solubilized in 0.9% saline on the day of the experiment. All doses were calculated on free base weight. The rats were anesthetized with pentobarbital sodium 60 mg/kg i.p. All animals were checked for depth of anesthesia before proceeding further using the corneal reflex and toe pinch response as indicators. The ventral surface of the neck was shaven and a longitudinal incision, approximately 2 cm long, was made on the ventral surface. The trachea was isolated and intubated (PE205; Intramedic, Parsippany, N.J.) . The left internal jugular vein and right common carotid artery were cannulated (PE50; Clay Adams, Becton Dickinson, Parsippany, N.J.). The cannulas were heparinized (Sodium heparin 60 units/ml) and inserted approximately 1.5 cm into the vessels and were secured with 4-0 silk suture. The animal was placed in the supine position, and body temperature was maintained via a heat lamp. A short piece of hypodermic tubing was inserted into the venous and arterial cannulas, and each cannula connected to a three way stopcock via a section of PE50 and 23 gauge Luer stub. The jugular line was used for administration of epinephrine and either piperoxan or phentolamine. In order to directly record arterial blood pressure, the carotid arterial line was connected to an electronic blood pressure transducer (P23db; Gould Electronics, Oxnard, Calif.). The blood pressure transducer was connected to a Gould transducer amplifier and a thermal recorder for the purpose of recording the arterial blood pressure waveform. After a stable blood pressure baseline was obtained, epinephrine was injected intravenously at a dose of 1.0 ug/kg for the purpose of inducing an alpha-adrenergic receptor mediated pressor response. This response was quantified by measurement of the arterial blood pressure waveform. After the epinephrine-induced pressor effect returned to baseline, either phentolamine or piperoxan was administered intravenously at a dose of 0.25 mg/kg. After dosing with piperoxan and phentolamine, epinephrine injections were repeated at 5, 10, 15, 20, 30, 40, 50, and 60 minutes post dosing. Arterial blood pressure was measured continuously during the length of the experiments.
Percent inhibition of the epinephrine-induced pressor effect by both phentolamine and piperoxan was used as a measure of inhibition of the alpha-adrenergic receptor. As stated previously, inhibition of the alpha receptor results in vasodilatation. Percent inhibition was calculated by the following formula: [formula]

[2] = cited from earlier work
[3] = in water and acid solutions; cited from earlier work
[4] = tested on: vascular alpha-adrenergic receptors; settings: epinephrine 1.0 ug/kg iv; all rats tested
Protocol: as §1
Epinephrine, D,L-piperoxan, and phentolamine (Sigma Chemical Company; St. Louis, Mo.) were solubilized in 0.9% saline on the day of the experiment. All doses were calculated on free base weight. The rats were anesthetized with pentobarbital sodium 60 mg/kg i.p. All animals were checked for depth of anesthesia before proceeding further using the corneal reflex and toe pinch response as indicators. The ventral surface of the neck was shaven and a longitudinal incision, approximately 2 cm long, was made on the ventral surface. The trachea was isolated and intubated (PE205; Intramedic, Parsippany, N.J.) . The left internal jugular vein and right common carotid artery were cannulated (PE50; Clay Adams, Becton Dickinson, Parsippany, N.J.). […] This response was quantified by measurement of the arterial blood pressure waveform. […] Arterial blood pressure was measured continuously during the length of the experiments.
Percent inhibition of the epinephrine-induced pressor effect by both phentolamine and piperoxan was used as a measure of inhibition of the alpha-adrenergic receptor. […] Percent inhibition was calculated by the following formula: [formula]

Cc1ccc(N(CC2=NCCN2)c2cccc(O)c2)cc1 [phentolamine]
duration of action / erections (erectile dysfunction): extremely long duration of action, resulting in erections which last several hours
priapism or extremely long erections following treatment for erectile dysfunction (erectile dysfunction): priapism or extremely long erections
estimated pharmacologic half-life on alpha-adrenergic receptor antagonism ([1]; 0.25 mg/kg iv): greater than 60 minutes
alpha-adrenergic antagonism in vivo ([1]; 0.25 mg/kg iv): inhibitory to the pressor-induced effect of epinephrine challenge

O=c1n(CCCN2CCN(c3cccc(Cl)c3)CC2)nc2ccccn12 [trazodone]
priapism or extremely long erections following treatment for erectile dysfunction (erectile dysfunction): priapism or extremely long erections

COC(=O)[C@@H]1[C@H]2C[C@H]3c4[nH]c5ccccc5c4CCN3C[C@@H]2CC[C@@H]1O [yohimbine]
duration of action / erections (erectile dysfunction): extremely long duration of action, resulting in erections which last several hours

c1ccc2c(c1)OCC(CN1CCCCC1)O2 (racemic) [piperoxan]
storage stability of aqueous solution ([2]; aqueous solution at pH 5.0, room temperature): many months of storage at room temperature
stability of aqueous solution to autoclaving ([2]; aqueous solution at pH 5.0): stable to autoclaving
hygroscopicity of crystals ([2]; crystals): not hygroscopic
stability of crystals ([2]; crystals, light, air, normal storage temperatures): stable to light, air, and normal storage temperatures
duration of action relative to that of phentolamine [1]: approximately one-half
duration of action relative to that of phentolamine ([1]; listed as Piperoxan): approximately half
biological half-life / duration of action compared with phentolamine ([1]; 0.25 mg/kg iv, FIG. 1): much shorter biological half-life; also recorded: shorter duration of action than phentolamine
estimated pharmacologic half-life on alpha-adrenergic receptor antagonism ([1]; 0.25 mg/kg iv): approximately 30 minutes
alpha-adrenergic antagonism in vivo ([1]; 0.25 mg/kg iv): inhibitory to the pressor-induced effect of epinephrine challenge; also recorded: alpha-adrenergic antagonist in vivo
solubility [3]: freely soluble

CNC[C@H](O)c1ccc(O)c(O)c1 [epinephrine]
arterial blood pressure change [4]: marked increase in arterial blood pressure in all rats tested

CC(COc1ccccc1)N(CCCl)Cc1ccccc1 (stereo not shown) [phenoxybenzamine]
priapism or extremely long erections following treatment for erectile dysfunction (erectile dysfunction): priapism or extremely long erections

COc1ccc(Cc2nccc3cc(OC)c(OC)cc23)cc1OC [papaverine]
priapism or extremely long erections following treatment for erectile dysfunction (erectile dysfunction): priapism or extremely long erections
